Experiments:
PI3K = PI3K luminescent kinase assay (Promega); format: biochemical; details: read-out: Kinase inhibition IC50 PI3K
Text: (§1) PI3K and mTOR kinase inhibition assay
(§2) The inhibitory activity of developed molecules against PI3K and mTOR was identified using luminescent kinase assay, and Lance Ultra assay from Promega, USA, respectively as per our earlier reported procedure ([38]).

mTOR = mTOR (Homo sapiens, UniProt P42345); assay: mTOR Lance Ultra kinase assay; format: biochemical; details: read-out: Kinase inhibition IC50 mTOR
Text: as §1, §2

K562 = assay: Cellular antiproliferation assay (CCK-8), K562; format: cell-based, human; details: K562 cells, read-out: Cell growth inhibition IC50 K562
KU812 = assay: Cellular antiproliferation assay (CCK-8), KU812; format: cell-based, human; details: KU812 cells, read-out: Cell growth inhibition IC50 KU812
Saos-2 = assay: Cellular antiproliferation assay (CCK-8), Saos-2; format: cell-based, human; details: Saos-2 cells, read-out: Cell growth inhibition IC50 Saos-2
Protocol: The human osteosarcoma cancer cell lines MG-63, U2-OS, and Saos-2 were purchased from CBSIBCB of the Chinese Academy of Sciences (Shanghai, China)
Cellular antiproliferation assay using cell counting kit (CCK-8)
The CCK-8 assay was used in the current study to analyze the effect of compounds on cellular proliferation. The transfected cells were seeded in a 96-well plate, and to this CCK-8 (20 µl) was added. The enzyme microplate reader at 450 nm was used to record the absorbance. The inhibitory effect on cellular proliferation was obtained as per the given formula: Inhibitory activity (%) = (1 - Atest/Acontrol) × 100 %.

Saos-2 cells [1] = assay: Cell cycle analysis by flow cytometry; format: cell-based, human; details: Saos-2 cells, 10, 20 and 30 µM
Protocol: The effect of compound 8a (0, 10, 20, and 30 µM) was investigated on the cell cycle of Saos-2 cells as per our earlier reported procedure using a FACSCalibur flow cytometer with CellQuest V.3.3 software (BD Biosciences, USA) ([38]).

Saos-2 cells [2] = assay: Flow cytometric apoptosis assay (Annexin V/PI); format: cell-based, human; details: Saos-2 cells, 10, 20 and 30 µM
Protocol: Flow cytometric apoptosis assay
The effect of compound 8a (0, 10, 20, and 30 µM) on apoptosis was investigated on Saos-2 cells as per our earlier reported procedure using a FACSCalibur flow cytometer with CellQuest V.3.3 software (BD Biosciences, USA) ([38]).

[3] = tested on: patient-derived osteosarcoma; assay: Osteosarcoma patient-derived orthotopic xenograft (PDOX) mouse model; format: in vivo, Athymic nu/nu nude mice
Protocol: Surgical orthotopic implantation (SOI) for the establishment of the osteosarcoma PDOX model
The PDOX model in Athymic nu/nu nude mice was established according to our earlier reported procedure ([38]). The tumor tissue for implantation was obtained from a OS patient with written informed consent.
The mice were arbitrarily categorized into four dissimilar groups (n=6), and the treatment schedule lasted for 14 days as follows. The compound 8a was dissolved in the solution of PEG400/Tween 80/Saline solution at 10/10/80 % in volume, respectively prior to intraperitoneal administration.
Groups 2, 3, and 4 received compound 8a (2, 5, and 10 mg/kg, respectively, IP, daily)
The control animals received the vehicle only.
The length and width of the tumor along with the bodyweight of mice were recorded.
The tumor volume was calculated with the following formula:
Tumor volume (mm^3)= length (mm) × width (mm) × […])⁄2
Examination of lung histopathology
At the end of the experiment, the lung tissues were harvested and fixed in formalin (10%). The tissues were further entrenched in paraffin, sectioned using a microtome into 5-μm thickness. The resulting sections were dyed using hematoxylin-eosin (HE).

[4] = Pharmacokinetic assessment in SD rats; format: in vivo; details: for AUC 0- INF / C max / T max / T ½: rat, in vivo
Protocol: Pharmacokinetic assessment
The compound 8a was administered to female SD rats in a single dose of 1 and 5 mg/kg using intra-venomous and per-oral route in the vehicle. The blood samples from the rats were collected in a timely manner starting from 2 min to 24 hr. The serum was extracted from the blood-aliquots for the estimation of various pharmacokinetic parameters (T1/2, Tmax, Cmax, AUC0-INF) developed using WinNonlin software using LC-MS/MS (Applied Biosystem, USA).

Compound | IC50 (PI3K) | IC50 (mTOR) | IC50 (K562) | IC50 (KU812) | IC50 (Saos-2) | also measured
Cc1nc(NC(=O)c2ccc(CN3CCN(c4ccc(Cl)cc4)CC3)cc2)nc(Nc2nccc(-c3nccs3)n2)n1 [Compound 8a] | 786 nM | 345 nM | 620 nM | 722 nM | 210 nM | Effect on cell cycle of Saos-2 cells (Saos-2 cells [1]): G2/M phase arrest; Effect on apoptosis of Saos-2 cells (Saos-2 cells [2]): dose-dependently increases apoptosis; Effect on lung metastasis (lung histopathology) ([3]; PDOX mice, 2 mg/kg IP daily, 14 days): does not have a significant effect; Effect on lung metastasis (lung histopathology) ([3]; PDOX mice, 5 mg/kg IP daily, 14 days): less necrotic lesions and minimum interstitial hemorrhages; Effect on lung metastasis (lung architecture, histopathology) ([3]; PDOX mice, 10 mg/kg IP daily, 14 days): significantly restored close to normal; Body weight of mice ([3]; PDOX mice, 2, 5 and 10 mg/kg IP daily, 14 days, vs control): improvement in body weight; Tumor volume ([3]; PDOX mice, 2, 5 and 10 mg/kg IP daily, at the end of the study): significantly reduced; Tolerability in the pharmacokinetic study ([4]; SD rats, 1 mg/kg IV and 5 mg/kg PO single dose): well-tolerated; AUC 0- INF ([4]; iv, 1 mg/kg): 61.201 µg·h/mL; C max ([4]; iv, 1 mg/kg): 8126 ng/mL; T max ([4]; iv, 1 mg/kg): 0.13 h; T ½ ([4]; iv, 1 mg/kg): 0.75 h; AUC 0- INF ([4]; po, 5 mg/kg): 297.326 µg·h/mL; C max ([4]; po, 5 mg/kg): 410 ng/mL; T max ([4]; po, 5 mg/kg): 2.67 h; T ½ ([4]; po, 5 mg/kg): 3.5 h
Cc1nc(NC(=O)c2ccc(CN3CCN(c4ccc(Br)cc4)CC3)cc2)nc(Nc2nccc(-c3nccs3)n2)n1 [Compound 8b] | 885 nM | 389 nM | 730 nM | 830 nM | 268 nM | –
Cc1ccc(N2CCN(Cc3ccc(C(=O)Nc4nc(C)nc(Nc5nccc(-c6nccs6)n5)n4)cc3)CC2)cc1 [Compound 8c] | 967 nM | 490 nM | 900 nM | 1030 nM | 530 nM | –
Cc1nc(NC(=O)c2ccc(CN3CCN(c4ccc([N+](=O)[O-])cc4)CC3)cc2)nc(Nc2nccc(-c3nccs3)n2)n1 [Compound 8d] | 905 nM | 414 nM | 822 nM | 950 nM | 340 nM | –
Cc1nc(NC(=O)c2ccc(CN3CCN(c4ccc(O)cc4)CC3)cc2)nc(Nc2nccc(-c3nccs3)n2)n1 [Compound 8e] | 987 nM | 456 nM | 887 nM | 1140 nM | 478 nM | –
COc1ccc(N2CCN(Cc3ccc(C(=O)Nc4nc(C)nc(Nc5nccc(-c6nccs6)n5)n4)cc3)CC2)cc1 [Compound 8f] | 1250 nM | 834 nM | 1200 nM | 1230 nM | 905 nM | –
